Experimental data as given in US9040545B2, “Heterocyclyl pyrazolopyrimidine analogues as selective JAK inhibitors” (Cellzome Limited, priority 2010, dated 2015).

How the values were obtained:
JAK2 = target: T1, JAK2 (Homo sapiens, UniProt O60674); assay: Kinobeads assay, JAK2; type: binding; conditions: mixed Molt4/Ramos lysate, read-out: Inhibition values (IC50) JAK2
T1 construct: endogenous in cells; host or cells: mixed Molt4/Ramos lysate (1:2)
Procedure, shortened: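 IC50 values come from dose-response curves of JAK2/JAK3 captured on immobilized aminopyrido-pyrimidine beads, quantified by antibody dot blot with infrared read-out. Compounds (1:3 series, 9 steps, from 5 mM DMSO stock) competed for 3 h in the cold with mixed Molt4/Ramos lysate (1:2, 10 mg/mL protein).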

Aurora B = target: T2, Aurora B (Homo sapiens, UniProt Q96GD4); assay: Kinobeads assay, Aurora B; type: binding; conditions: for IC50: lysate of pervanadate-treated Jurkat cells, read-out: Inhibition values (IC50) Aur B
T2 construct: cell lysates from Jurkat cells (ATCC TIB-152) used; endogenous in cells; host or cells: Jurkat cells (ATCC TIB-152), treated with pervanadate
T2 sequence (Q96GD4 whole entry): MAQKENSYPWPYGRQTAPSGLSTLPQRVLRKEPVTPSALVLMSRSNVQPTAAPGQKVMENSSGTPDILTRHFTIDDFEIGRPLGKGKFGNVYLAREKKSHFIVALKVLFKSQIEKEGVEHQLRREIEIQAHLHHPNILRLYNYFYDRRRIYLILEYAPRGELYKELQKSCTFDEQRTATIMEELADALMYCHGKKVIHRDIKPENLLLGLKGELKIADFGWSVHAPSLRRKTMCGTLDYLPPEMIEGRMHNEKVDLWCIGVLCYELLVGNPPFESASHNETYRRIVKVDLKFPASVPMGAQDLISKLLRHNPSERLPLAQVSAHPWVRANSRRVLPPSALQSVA

T1 sequence (O60674 whole entry): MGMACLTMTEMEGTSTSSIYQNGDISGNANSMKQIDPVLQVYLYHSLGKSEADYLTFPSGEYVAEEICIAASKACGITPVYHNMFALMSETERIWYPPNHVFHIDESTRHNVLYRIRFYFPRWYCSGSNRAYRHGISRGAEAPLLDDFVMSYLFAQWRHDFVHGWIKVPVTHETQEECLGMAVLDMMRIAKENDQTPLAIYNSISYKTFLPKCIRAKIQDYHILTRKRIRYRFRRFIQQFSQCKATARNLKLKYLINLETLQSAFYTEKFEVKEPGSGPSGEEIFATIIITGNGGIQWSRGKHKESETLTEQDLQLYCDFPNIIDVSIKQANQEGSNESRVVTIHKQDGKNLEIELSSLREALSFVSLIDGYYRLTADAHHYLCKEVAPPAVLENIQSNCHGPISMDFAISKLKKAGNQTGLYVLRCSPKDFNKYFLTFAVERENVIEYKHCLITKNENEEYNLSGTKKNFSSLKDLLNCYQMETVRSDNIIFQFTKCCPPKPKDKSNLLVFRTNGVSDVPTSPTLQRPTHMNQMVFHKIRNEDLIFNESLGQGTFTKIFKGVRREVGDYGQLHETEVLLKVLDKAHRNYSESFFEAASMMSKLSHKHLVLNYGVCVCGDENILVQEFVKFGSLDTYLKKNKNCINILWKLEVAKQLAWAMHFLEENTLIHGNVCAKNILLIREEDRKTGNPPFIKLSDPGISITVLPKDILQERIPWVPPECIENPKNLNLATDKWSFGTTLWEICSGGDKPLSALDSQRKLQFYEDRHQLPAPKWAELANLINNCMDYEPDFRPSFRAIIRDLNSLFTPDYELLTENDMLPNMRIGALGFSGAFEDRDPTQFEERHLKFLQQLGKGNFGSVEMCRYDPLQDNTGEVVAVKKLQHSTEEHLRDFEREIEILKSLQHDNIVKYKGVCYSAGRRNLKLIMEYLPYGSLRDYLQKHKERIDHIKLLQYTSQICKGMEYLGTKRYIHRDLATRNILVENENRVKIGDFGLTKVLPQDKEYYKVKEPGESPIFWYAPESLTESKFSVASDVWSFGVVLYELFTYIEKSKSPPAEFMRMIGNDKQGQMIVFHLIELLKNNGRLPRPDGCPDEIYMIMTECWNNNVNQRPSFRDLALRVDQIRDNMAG

Row | IC50 (JAK2) | JAK3/AurB Fold Selectivity (Aurora B) | IC50 (Aurora B) | SMILES
1 | 1 to 10 µM | 3-10 Fold | < 0.1 µM | Cn1cc(Nc2ncc3cnn(Cc4cc(C(=O)N5CCOCC5)cc(F)c4F)c3n2)cn1 [Example 98, (3,4-difluoro-5-((6-((1-methyl-1H-pyrazol-4-yl)amino)-1H-pyrazolo[3,4-d]pyrimidin-1-yl)methyl)phenyl)(morpholino)methanone]
2 | 1 to 10 µM | 3-10 Fold | < 0.1 µM | CNCCCn1cc(Nc2ncc3cnn(Cc4cc(F)cc(N5CCOCC5=O)c4)c3n2)cn1 [Example 99, 4-(3-fluoro-5-((6-((1-(3-(methylamino)propyl)-1H-pyrazol-4-yl)amino)-1H-pyrazolo[3,4-d]pyrimidin-1-yl)methyl)phenyl)morpholin-3-one]
3 | ≥ 10 µM | 10-50 Fold | 1 to 10 µM | Cn1cc(Nc2ncc3cnn(Cc4cccc(N5CCN(S(C)(=O)=O)CC5)c4)c3n2)cn1 [Example 100, N-(1-methyl-1H-pyrazol-4-yl)-1-(3-(4-(methylsulfonyl)piperazin-1-yl)benzyl)-1H-pyrazolo[3,4-d]pyrimidin-6-amine]
4 | 1 to 10 µM | 10-50 Fold | 0.1 to 1 µM | O=C1COCCN1c1cc(F)cc(Cn2ncc3cnc(Nc4cnn(CC5CCNC5)c4)nc32)c1 (stereo not drawn) [Example 101, 4-(3-fluoro-5-((6-((1-(pyrrolidin-3-ylmethyl)-1H-pyrazol-4-yl)amino)-1H-pyrazolo[3,4-d]pyrimidin-1-yl)methyl)phenyl)morpholin-3-one]
5 | 0.1 to 1 µM | 10-50 Fold | 0.1 to 1 µM | O=C1COCCN1c1cc(F)cc(Cn2ncc3cnc(Nc4cnn(C5CCNCC5)c4)nc32)c1 [Example 102, 4-(3-fluoro-5-((6-((1-(piperidin-4-yl)-1H-pyrazol-4-yl)amino)-1H-pyrazolo[3,4-d]pyrimidin-1-yl)methyl)phenyl)morpholin-3-one]
6 | 1 to 10 µM | 3-10 Fold | 0.1 to 1 µM | Cn1cc(Nc2ncc3cnn(Cc4cccc(N5CCOCC5)c4Cl)c3n2)cn1 [Example 103, 1-(2-chloro-3-morpholinobenzyl)-N-(1-methyl-1H-pyrazol-4-yl)-1H-pyrazolo[3,4-d]pyrimidin-6-amine]
7 | ≥ 10 µM | 10-50 Fold | 1 to 10 µM | Cn1cc(Nc2ncc3cnn(Cc4cccc(N5CCC6(COC6)C5)c4)c3n2)cn1 [Example 104, 1-(3-(2-oxa-6-azaspiro[3.4]octan-6-yl)benzyl)-N-(1-methyl-1H-pyrazol-4-yl)-1H-pyrazolo[3,4-d]pyrimidin-6-amine]
8 | 1 to 10 µM | >50 Fold | 0.1 to 1 µM | O=C1CC(Cn2cc(Nc3ncc4cnn(Cc5cc(F)cc(N6CCOCC6=O)c5)c4n3)cn2)CN1 (stereo not drawn) [Example 105, 4-(3-fluoro-5-((6-((1-((5-oxopyrrolidin-3-yl)methyl)-1H-pyrazol-4-yl)amino)-1H-pyrazolo[3,4-d]pyrimidin-1-yl)methyl)phenyl)morpholin-3-one]
9 | 1 to 10 µM | 10-50 Fold | 0.1 to 1 µM | O=C1COCCN1c1cc(F)cc(Cn2ncc3cnc(Nc4cnn(CCS(=O)(=O)NC5CC5)c4)nc32)c1 [Example 106, N-cyclopropyl-2-(4-((1-(3-fluoro-5-(3-oxomorpholino)benzyl)-1H-pyrazolo[3,4-d]pyrimidin-6-yl)amino)-1H-pyrazol-1-yl)ethanesulfonamide]
10 | 1 to 10 µM | 10-50 Fold | 0.1 to 1 µM | N#CCCn1cc(Nc2ncc3cnn(Cc4cc(F)cc(N5CCOCC5=O)c4)c3n2)cn1 [Example 107, 3-(4-((1-(3-fluoro-5-(3-oxomorpholino)benzyl)-1H-pyrazolo[3,4-d]pyrimidin-6-yl)amino)-1H-pyrazol-1-yl)propanenitrile]
11 | ≥ 10 µM | 10-50 Fold | 1 to 10 µM | Cn1cc(Nc2ncc3cnn(Cc4cccc(N5CCC(=O)CC5)c4)c3n2)cn1 [Example 108, 1-(3-((6-((1-methyl-1H-pyrazol-4-yl)amino)-1H-pyrazolo[3,4-d]pyrimidin-1-yl)methyl)phenyl)piperidin-4-one]
12 | 1 to 10 µM | 10-50 Fold | 0.1 to 1 µM | O=C(Cn1cc(Nc2ncc3cnn(Cc4cc(F)cc(N5CCOCC5=O)c4)c3n2)cn1)N1CCNCC1 [Example 109, 4-(3-fluoro-5-((6-((1-(2-oxo-2-(piperazin-1-yl)ethyl)-1H-pyrazol-4-yl)amino)-1H-pyrazolo[3,4-d]pyrimidin-1-yl)methyl)phenyl)morpholin-3-one]
13 | 0.1 to 1 µM | 3-10 Fold | 0.1 to 1 µM | Cn1cc(Nc2ncc3cnn(Cc4c(F)c(F)cc(C(=O)N5CCOCC5)c4F)c3n2)cn1 [Example 110, morpholino(2,4,5-trifluoro-3-((6-((1-methyl-1H-pyrazol-4-yl)amino)-1H-pyrazolo[3,4-d]pyrimidin-1-yl)methyl)phenyl)methanone]
14 | 1 to 10 µM | 10-50 Fold | 0.1 to 1 µM | O=C(c1cc(F)c(F)c(Cn2ncc3cnc(Nc4cnn(CCO)c4)nc32)c1F)N1CCOCC1 [Example 111, morpholino(2,4,5-trifluoro-3-((6-((1-(2-hydroxyethyl)-1H-pyrazol-4-yl)amino)-1H-pyrazolo[3,4-d]pyrimidin-1-yl)methyl)phenyl)methanone]
15 | ≥ 10 µM | >50 Fold | 1 to 10 µM | C[C@H]1COCCN1c1cccc(Cn2ncc3cnc(Nc4cnn(C)c4)nc32)c1 [Example 112, (S)-N-(1-methyl-1H-pyrazol-4-yl)-1-(3-(3-methylmorpholino)benzyl)-1H-pyrazolo[3,4-d]pyrimidin-6-amine]
16 | ≥ 10 µM | >50 Fold | 1 to 10 µM | C[C@@H]1COCCN1c1cccc(Cn2ncc3cnc(Nc4cnn(C)c4)nc32)c1 [Example 113, (R)-N-(1-methyl-1H-pyrazol-4-yl)-1-(3-(3-methylmorpholino)benzyl)-1H-pyrazolo[3,4-d]pyrimidin-6-amine]
17 | 1 to 10 µM | 10-50 Fold | 0.1 to 1 µM | Cn1cc(Nc2ncc3cnn(Cc4cccc(NC5COC5)c4)c3n2)cn1 [Example 114, N-(1-methyl-1H-pyrazol-4-yl)-1-(3-(oxetan-3-ylamino)benzyl)-1H-pyrazolo[3,4-d]pyrimidin-6-amine]
18 | 1 to 10 µM | >50 Fold | 1 to 10 µM | Cn1cc(Nc2ncc3cnn(Cc4cccc(-c5cnn(C)c5)c4)c3n2)cn1 [Example 115, N-(1-methyl-1H-pyrazol-4-yl)-1-(3-(1-methyl-1H-pyrazol-4-yl)benzyl)-1H-pyrazolo[3,4-d]pyrimidin-6-amine]
19 | 1 to 10 µM | >50 Fold | 1 to 10 µM | CCn1cc(-c2cccc(Cn3ncc4cnc(Nc5cnn(C)c5)nc43)c2)cn1 [Example 116, 1-(3-(1-ethyl-1H-pyrazol-4-yl)benzyl)-N-(1-methyl-1H-pyrazol-4-yl)-1H-pyrazolo[3,4-d]pyrimidin-6-amine]
20 | ≥ 10 µM | >50 Fold | ≥ 10 µM | CC(C)n1cc(-c2cccc(Cn3ncc4cnc(Nc5cnn(C)c5)nc43)c2)cn1 [Example 117, 1-(3-(1-isopropyl-1H-pyrazol-4-yl)benzyl)-N-(1-methyl-1H-pyrazol-4-yl)-1H-pyrazolo[3,4-d]pyrimidin-6-amine]
21 | ≥ 10 µM | 10-50 Fold | 1 to 10 µM | Cn1cc(Nc2ncc3cnn(Cc4cccc(-c5cn[nH]c5)c4)c3n2)cn1 [Example 118, 1-(3-(1H-pyrazol-4-yl)benzyl)-N-(1-methyl-1H-pyrazol-4-yl)-1H-pyrazolo[3,4-d]pyrimidin-6-amine]
22 | ≥ 10 µM | >50 Fold | 1 to 10 µM | CCCn1cc(-c2cccc(Cn3ncc4cnc(Nc5cnn(C)c5)nc43)c2)cn1 [Example 119, N-(1-methyl-1H-pyrazol-4-yl)-1-(3-(1-propyl-1H-pyrazol-4-yl)benzyl)-1H-pyrazolo[3,4-d]pyrimidin-6-amine]
23 | 1 to 10 µM | >50 Fold | 1 to 10 µM | Cn1cc(Nc2ncc3cnn(Cc4cccc(-c5cnn(CC(N)=O)c5)c4)c3n2)cn1 [Example 120, 2-(4-(3-((6-((1-methyl-1H-pyrazol-4-yl)amino)-1H-pyrazolo[3,4-d]pyrimidin-1-yl)methyl)phenyl)-1H-pyrazol-1-yl)acetamide]
24 | 1 to 10 µM | 10-50 Fold | 1 to 10 µM | Cn1cc(Nc2ncc3cnn(Cc4cccc(-c5cnn(CCO)c5)c4)c3n2)cn1 [Example 121, 2-(4-(3-((6-((1-methyl-1H-pyrazol-4-yl)amino)-1H-pyrazolo[3,4-d]pyrimidin-1-yl)methyl)phenyl)-1H-pyrazol-1-yl)ethanol]
25 | 1 to 10 µM | >50 Fold | 0.1 to 1 µM | Cn1cc(-c2cccc(Cn3ncc4cnc(Nc5cnn(CCO)c5)nc43)c2)cn1 [Example 122, 2-(4-((1-(3-(1-methyl-1H-pyrazol-4-yl)benzyl)-1H-pyrazolo[3,4-d]pyrimidin-6-yl)amino)-1H-pyrazol-1-yl)ethanol]
26 | 1 to 10 µM | >50 Fold | 1 to 10 µM | Cn1cc(Nc2ncc3cnn(Cc4cccc(-c5cnn(C)c5)c4F)c3n2)cn1 [Example 123, 1-(2-fluoro-3-(1-methyl-1H-pyrazol-4-yl)benzyl)-N-(1-methyl-1H-pyrazol-4-yl)-1H-pyrazolo[3,4-d]pyrimidin-6-amine]
